Measured values as given in patent US8536202B2, “Triazole-substituted anthranilamides as pesticides” (Bayer Cropscience AG, priority 2010, dated 2013).

Experiments:
[1] = system: larvae of the mustard beetle (Phaedon cochleariae); assay: Phaedon test (PHAECO spray treatment); format: in vivo; details: 168 h, 100 g/ha, after 7 days, read-out: activity in %
Procedure: (§1) Solvents: 78.0 parts by weight of acetone • • 1.5 parts by weight of dimethylformamide
(§2) Emulsifier: 0.5 part by weight of alkylaryl polyglycol ether
(§3) An appropriate preparation of active compound is prepared by mixing 1 part by weight of active compound with the stated amounts of solvent and emulsifier and diluting the concentrate with emulsifier-containing water to the desired concentration.
After 7 days, the activity in % is ascertained. Here, 100% means that all of the beetle larvae have been killed; 0% means that no beetle larvae have been killed.

[2] = log P determination by HPLC on reversed-phase columns (EEC Directive 79/831 Annex V.A8); format: physicochemical; details: pH 2.7
Procedure: Determination by LC-MS in the acidic range takes place at a pH of 2.7 using 0.1% aqueous formic acid and acetonitrile (containing 0.1% formic acid) as eluents, with a linear gradient from 10% acetonitrile to 95% acetonitrile.
Calibration was carried out using unbranched alkan-2-ones (having 3 to 16 carbon atoms) with known log P values (the log P values are determined from the retention times by linear interpolation between two successive alkanones).

[3] = system: caterpillars of the armyworm (Spodoptera frugiperda); assay: Spodoptera frugiperda test (SPODFR spray treatment); format: in vivo; details: 168 h, 100 g/ha, after 7 days, read-out: activity in %
Procedure: as §1, §2, §3
Leaf discs of maize (Zea mays) are sprayed with a preparation of active compound at the desired concentration and, after drying, are populated with caterpillars of the armyworm (Spodoptera frugiperda).
After 7 days, the activity in % is ascertained. Here, 100% means that all of the caterpillars have been killed; 0% means that no caterpillar has been killed.

With CNC(=O)c1cc(C#N)cc(C)c1NC(=O)c1cc(Cn2cc(-c3cccc(Cl)c3)nn2)nn1-c1ncccc1Cl [Example 36] the pest or weed control at 100 g/ha [1] was 100%, the chromatographic logP [2] was 2.86 and the pest or weed control at 100 g/ha [3] was 100%.
Work on CNC(=O)c1cc(C#N)cc(C)c1NC(=O)c1cc(Cn2ncc(-c3ccc(F)cc3)n2)nn1-c1ncccc1Cl [Example 40] yielded a pest or weed control at 100 g/ha [1] of 100%, a chromatographic logP [2] of 2.96 and a pest or weed control at 100 g/ha [3] of 100%.
CNC(=O)c1cc(C#N)cc(C)c1NC(=O)c1cc(Cn2ncc(-c3ccc(Cl)cc3)n2)nn1-c1ncccc1Cl [Example 41] gave a pest or weed control at 100 g/ha [1] of 100%, a chromatographic logP [2] of 3.34 and a pest or weed control at 100 g/ha [3] of 100%.
Molecule CNC(=O)c1cc(C#N)cc(C)c1NC(=O)c1cc(Cn2ncc(-c3ccc(Cl)cc3Cl)n2)nn1-c1ncccc1Cl [Example 42] has a pest or weed control at 100 g/ha [1] of 100%, a chromatographic logP [2] of 3.81 and a pest or weed control at 100 g/ha [3] of 100%.
In the case of CNC(=O)c1cc(C#N)cc(C)c1NC(=O)c1cc(Cn2ncc(-c3ccccc3Cl)n2)nn1-c1ncccc1Cl [Example 43], the pest or weed control at 100 g/ha [1] is reported as 100%, the chromatographic logP [2] is reported as 3.21 and the pest or weed control at 100 g/ha [3] is reported as 100%.
CNC(=O)c1cc(C#N)cc(C)c1NC(=O)c1cc(Cn2ncc(-c3cccc(Cl)c3)n2)nn1-c1ncccc1Cl [Example 44] showed a pest or weed control at 100 g/ha [1] of 100%, a chromatographic logP [2] of 3.23 and a pest or weed control at 100 g/ha [3] of 100%.
For Cc1cc(Cl)cc(C(=O)NC(C)(C)C)c1NC(=O)c1cc(Cn2cc(-c3ccc(F)cc3)nn2)nn1-c1ncccc1Cl [Example 45], the pest or weed control at 100 g/ha [1] was 100%, the chromatographic logP [2] was 3.63 and the pest or weed control at 100 g/ha [3] was 100%.
Work on Cc1cc(C#N)cc(C(=O)NC(C)(C)C)c1NC(=O)c1cc(Cn2cc(-c3ccc(Cl)cc3Cl)nn2)nn1-c1ncccc1Cl [Example 55] yielded a pest or weed control at 100 g/ha [1] of 100%, a chromatographic logP [2] of 4.06 and a pest or weed control at 100 g/ha [3] of 100%.
For Cc1cc(C#N)cc(C(=O)NC(C)(C)C)c1NC(=O)c1cc(Cn2cc(-c3cccc(Cl)c3)nn2)nn1-c1ncccc1Cl [Example 57], the pest or weed control at 100 g/ha [1] was 100%, the chromatographic logP [2] was 3.55 and the pest or weed control at 100 g/ha [3] was 83%.
Molecule Cc1cc(C#N)cc(C(=O)NC(C)(C)C)c1NC(=O)c1cc(Cn2ncc(-c3ccc(F)cc3)n2)nn1-c1ncccc1Cl [Example 61] has a pest or weed control at 100 g/ha [1] of 100%, a chromatographic logP [2] of 3.72 and a pest or weed control at 100 g/ha [3] of 100%.
Molecule Cc1cc(C#N)cc(C(=O)NC(C)(C)C)c1NC(=O)c1cc(Cn2ncc(-c3ccc(Cl)cc3)n2)nn1-c1ncccc1Cl [Example 62] has a pest or weed control at 100 g/ha [1] of 100%, a chromatographic logP [2] of 4.06 and a pest or weed control at 100 g/ha [3] of 100%.
Molecule Cc1cc(C#N)cc(C(=O)NC(C)(C)C)c1NC(=O)c1cc(Cn2ncc(-c3ccc(Cl)cc3Cl)n2)nn1-c1ncccc1Cl [Example 63] has a pest or weed control at 100 g/ha [1] of 100%, a chromatographic logP [2] of 4.67 and a pest or weed control at 100 g/ha [3] of 100%.
In the case of Cc1cc(C#N)cc(C(=O)NC(C)(C)C)c1NC(=O)c1cc(Cn2ncc(-c3ccccc3Cl)n2)nn1-c1ncccc1Cl [Example 64], the pest or weed control at 100 g/ha [1] is reported as 100%, the chromatographic logP [2] is reported as 4.03 and the pest or weed control at 100 g/ha [3] is reported as 100%.
Molecule Cc1cc(C#N)cc(C(=O)NC(C)(C)C)c1NC(=O)c1cc(Cn2ncc(-c3cccc(Cl)c3)n2)nn1-c1ncccc1Cl [Example 65] has a pest or weed control at 100 g/ha [1] of 100%, a chromatographic logP [2] of 4.14 and a pest or weed control at 100 g/ha [3] of 100%.
With CNC(=O)c1cc(Cl)cc(C)c1NC(=O)c1cc(Cn2nnc3cc([N+](=O)[O-])ccc32)nn1-c1ncccc1Cl [Example 71] the pest or weed control at 100 g/ha [1] was 100%, the chromatographic logP [2] was 2.64 and the pest or weed control at 100 g/ha [3] was 100%.
Work on CNC(=O)c1cc(Cl)cc(C)c1NC(=O)c1cc(Cn2nc3ccc(Cl)cc3n2)nn1-c1ncccc1Cl [Example 72] yielded a pest or weed control at 100 g/ha [1] of 100%, a chromatographic logP [2] of 3.28 and a pest or weed control at 100 g/ha [3] of 100%.
CNC(=O)c1cc(Cl)cc(C)c1NC(=O)c1cc(Cn2nc3ccc(C(F)(F)F)cc3n2)nn1-c1ncccc1Cl [Example 74] showed a pest or weed control at 100 g/ha [1] of 100%, a chromatographic logP [2] of 3.48 and a pest or weed control at 100 g/ha [3] of 100%.
